Experimental data published in the supplement of paper PMC9663587.

Experiments:
YKL-5-124 [1] = compound: T1, C=CC(=O)Nc1ccc(C(=O)Nc2[nH]nc3c2CN(C(=O)N[C@H](CN(C)C)c2ccccc2)C3(C)C)cc1 [YKL-5-124]
Everolimus = compound: CO[C@H]1C[C@@H]2CC[C@@H](C)[C@@](O)(O2)C(=O)C(=O)N2CCCC[C@H]2C(=O)O[C@H]([C@H](C)C[C@@H]2CC[C@@H](OCCO)[C@H](OC)C2)CC(=O)[C@H](C)/C=C(\C)[C@@H](O)[C@@H](OC)C(=O)[C@H](C)C[C@H](C)/C=C/C=C/C=C/1C [Everolimus]
[2] = compound: COc1cccc(OCCCN)c1-c1cc(Nc2cnc(C#N)cn2)n[nH]1
THZ531 = compound: CN(C)C/C=C/C(=O)Nc1ccc(C(=O)N2CCC[C@@H](Nc3ncc(Cl)c(-c4c[nH]c5ccccc45)n3)C2)cc1 [THZ531]; assay: GR value, 72 h; higher = faster growth (1 = untreated, <0 = killing);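 also: breast cancer and non-malignant breast epithelial lines, nine half-log doses, viable cells counted by Hoechst and LIVE/DEAD dye imaging versus time-zero plates and DMSO controls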
YKL-5-124 [3] = compound: T1, YKL-5-124; assay: as above
Etoposide = compound: COc1cc([C@@H]2c3cc4c(cc3[C@@H](O[C@@H]3O[C@@H]5CO[C@@H](C)O[C@H]5[C@H](O)[C@H]3O)[C@H]3COC(=O)[C@H]23)OCO4)cc(OC)c1O [Etoposide]
Cisplatin = compound: N.N.Cl[Pt]Cl [Cisplatin]
Topotecan = compound: CC[C@@]1(O)C(=O)OCc2c1cc1n(c2=O)Cc2cc3c(CN(C)C)c(O)ccc3nc2-1 [Topotecan]
Bleomycin = compound: CC1=C(N=C(N=C1N)[C@H](CC(=O)N)NC[C@@H](C(=O)N)N)C(=O)N[C@@H]([C@H](C2=CN=CN2)OC3C(C(C(C(O3)CO)O)O)OC4C(C(C(C(O4)CO)O)OC(=O)N)O)C(=O)N[C@H](C)[C@H]([C@H](C)C(=O)N[C@@H]([C@@H](C)O)C(=O)NCCC5=NC(=CS5)C6=NC(=CS6)C(=O)NCCC[S+](C)C)O [Bleomycin]; conditions: main component drawn
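For GR50, 72 h in this document: breast cancer and non-malignant breast epithelial cell lines, Deep Dye Drop or Dye Drop imaging, nine half-log doses, GR normalized to time-zero plates and DMSO-only controls.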

Cell Line | GR50, 72 h (YKL-5-124 [1]) [µM] | GR50, 72 h (Everolimus) [µM] | GR50, 72 h [2] [µM] | GR value (THZ531; 0.0001 µM) [GR] | GR value (THZ531; 0.0003162 µM) [GR] | GR value (THZ531; 0.001 µM) [GR] | GR value (THZ531; 0.003162 µM) [GR] | GR value (THZ531; 0.01 µM) [GR] | GR value (THZ531; 0.03162 µM) [GR] | GR value (THZ531; 0.1 µM) [GR] | GR value (THZ531; 0.3162 µM) [GR] | GR value (THZ531; 1 µM) [GR] | GR value (YKL-5-124 [3]; 0.001 µM) [GR] | GR value (YKL-5-124 [3]; 0.003162 µM) [GR] | GR value (YKL-5-124 [3]; 0.01 µM) [GR] | GR value (YKL-5-124 [3]; 0.03162 µM) [GR] | GR value (YKL-5-124 [3]; 0.1 µM) [GR] | GR value (YKL-5-124 [3]; 0.3162 µM) [GR] | GR value (YKL-5-124 [3]; 1 µM) [GR] | GR value (YKL-5-124 [3]; 3.162 µM) [GR] | GR value (YKL-5-124 [3]; 10 µM) [GR] | GR50, 72 h (Etoposide) [µM] | GR50, 72 h (Cisplatin) [µM] | GR50, 72 h (Topotecan) [µM] | GR50, 72 h (Bleomycin) [µM]
SUM52PE | 0.0453 | > 10 | 0.00264 | 1.05 | 0.984 | 0.937 | 0.994 | 1.02 | 0.978 | 0.818 | 0.186 | -0.226 | 0.72 | 0.654 | 0.573 | 0.552 | 0.437 | 0.391 | 0.364 | 0.227 | 0.0112 | – | – | – | –
MDAMB415 | 0.00409 | – | – | 0.975 | 0.9 | 0.875 | 1.05 | 0.946 | 0.731 | 0.0348 | -0.33 | -0.343 | 0.597 | 0.543 | 0.372 | 0.396 | 0.338 | 0.279 | 0.323 | 0.24 | -0.0052 | – | – | – | –
ZR7530 | – | – | – | 0.959 | 1.15 | 0.926 | 0.99 | 1.02 | 0.98 | -0.379 | -0.732 | -0.42 | 0.344 | 0.254 | 0.245 | 0.309 | 0.197 | 0.138 | 0.176 | 0.177 | -0.625 | – | – | – | –
HCC1500 | – | – | – | – | – | – | – | – | – | – | – | – | – | – | – | – | – | – | – | – | – | 1.43 | 3.45 | 0.00546 | 2.28
PDXHCI002 | < 0.001 | > 10 | – | 1.1 | 1.06 | 0.966 | 1.06 | 0.958 | 0.782 | 0.0491 | -0.122 | -0.198 | 0.288 | 0.306 | 0.168 | 0.196 | 0.158 | 0.0899 | 0.0177 | 0.0442 | -0.129 | 0.182 | 1.73 | 0.00665 | 1.16
PDX1328 | – | – | 0.000974 | 0.957 | 0.973 | 0.939 | 1.11 | 0.84 | 0.788 | 0.153 | -0.45 | -0.532 | 0.525 | 0.572 | 0.406 | 0.424 | 0.45 | 0.301 | 0.351 | 0.295 | -0.0349 | 0.805 | 0.784 | 0.00592 | 4
BT474 | < 0.001 | – | – | 1.09 | 0.953 | 0.521 | 0.917 | 1.1 | 0.881 | -0.388 | -0.861 | -0.675 | 0.506 | 0.225 | 0.197 | 0.179 | -0.0193 | -0.106 | -0.16 | -0.0451 | -0.519 | – | – | – | –
184A1 | < 0.001 | > 10 | – | 1.01 | 0.964 | 0.898 | 0.954 | 0.931 | 0.968 | 0.814 | 0.438 | -0.377 | 0.287 | 0.204 | 0.116 | 0.07 | 0.0439 | 0.0314 | 0.0278 | -0.0126 | -0.0798 | – | – | – | –
MDAMB330 | – | < 0.001 | 0.000237 | 1.12 | 0.83 | 0.891 | 0.971 | 0.805 | 0.214 | -0.965 | -0.962 | -0.968 | 0.265 | 0.245 | 0.149 | 0.177 | 0.133 | -0.0197 | 0.0836 | 0.0626 | -0.732 | – | – | – | –
HCC1954 | < 0.001 | – | – | 1.04 | 1.06 | 0.921 | 1.04 | 1.07 | 1.05 | 0.873 | 0.66 | -0.297 | 0.224 | 0.154 | 0.0574 | 0.0823 | -0.0214 | 0.0013 | -0.0774 | -0.0189 | -0.143 | 0.171 | 1.25 | 0.0119 | 0.0438
HCC202 | – | – | 0.00549 | 1.12 | 0.893 | 0.907 | 1.12 | 0.883 | 0.809 | 0.411 | 0.0512 | 0.151 | 0.459 | 0.432 | 0.377 | 0.409 | 0.291 | 0.228 | 0.337 | 0.288 | -0.165 | – | – | – | –
SUM44PE | – | < 0.001 | 0.000342 | 1.05 | 0.994 | 0.799 | 1.04 | 0.941 | 0.783 | -0.203 | – | – | -0.181 | 0.0065 | -0.018 | -0.112 | -0.198 | -0.167 | -0.274 | -0.448 | – | – | – | – | –
BT20 | 0.0135 | – | 0.000944 | 1 | 0.93 | 0.967 | 0.988 | 1.09 | 1 | 0.927 | 0.907 | 0.647 | 0.835 | 0.664 | 0.432 | 0.395 | 0.219 | 0.229 | 0.13 | 0.0428 | -0.116 | 0.301 | 0.791 | 0.0123 | 0.488
HCC1428 | – | 0.031 | – | – | – | – | – | – | – | – | – | – | – | – | – | – | – | – | – | – | – | 0.214 | 0.901 | 0.0106 | 4.26
EVSAT | < 0.001 | – | – | 0.995 | 0.952 | 1 | 1.01 | 1.07 | 1.06 | 0.745 | 0.0467 | – | 0.327 | 0.292 | 0.215 | 0.13 | 0.0905 | 0.0313 | 0.019 | -0.0275 | -0.412 | – | – | – | –
HS578T | < 0.001 | 0.00554 | – | 1.04 | 0.978 | 1 | 1.03 | 0.993 | 0.798 | 0.051 | -0.213 | -0.252 | 0.455 | 0.364 | 0.311 | 0.239 | 0.242 | 0.195 | 0.167 | 0.0237 | -0.462 | 0.413 | 1.54 | 0.00498 | 0.252
